Assay results published in patent publication US20260315452A1, “PROTEASE INHIBITORS AND USES THEREOF” (priority 2023, published 2026).
pEC50, pIC50: −log10 of the molar value.

What was measured:
SARS-CoV-2 = test: Anti-SARS-CoV-2 activity in A549 cells expressing the human ACE2 receptor (inhibition of SARS-CoV-2 replication); format: cell-based; settings: for pEC50: Severe acute respiratory syndrome coronavirus 2, A549-ACE2, 24 h, read-out: Antiviral Activity (EC50)
SARS-CoV-2 3CLpro = SARS-CoV-2 3CLpro (Severe acute respiratory syndrome coronavirus 2, UniProt P0DTD1); test: biochemical; settings: inhibition of SARS-CoV-2 3CLpro; 15 nM 3CLpro, 25 μM fluorogenic substrate, 37° C.; read-out: Inhibitory Activity (IC50)

Row | Compound | pEC50 (SARS-CoV-2) | pIC50 (SARS-CoV-2 3CLpro) | antiviral potency in A549 cells in comparison with compound Ref-2 (SARS-CoV-2; A549 cells, versus Ref-2 (FIG. 7))
1 | CNC(=O)c1cc(Cl)cc([N+](=O)[O-])c1N[C@H]1CN(C(=O)c2cncc3ccccc23)CC[C@@H]1F [Compound 96, 5-chloro-2-(((3S, 4S)-4-fluoro-1-(isoquinoline-4-carbonyl)piperidin-3-yl)amino)-N-methyl-3-nitrobenzamide] | > 7.00 | > 7.00 | 
2 | CNC(=O)c1cc(Br)cc([N+](=O)[O-])c1NC1CN(C(=O)c2cncc3ccccc23)CC1(F)F (stereo not shown) [Compound 18, 5-bromo-2-((4,4-difluoro-1-(isoquinoline-4-carbonyl)pyrrolidin-3-yl)amino)-N-methyl-3-nitrobenzamide] | 6.00 to 7.00 | 6.00 to 7.00 | 
3 | O=C(NC1CC(F)(F)C1)c1cc(Cl)cc([N+](=O)[O-])c1N[C@@H]1COCC[C@@H]1NC(=O)c1cncc2ccccc12 [Compound 29, N-((3S, 4S)-3-((4-chloro-2-((3,3-difluorocyclobutyl)carbamoyl)-6-nitrophenyl)amino)tetrahydro-2H-pyran-4-yl)isoquinoline-4-carboxamide] | > 7.00 | > 7.00 | better antiviral potency
4 | CNC(=O)c1cc(Br)cc([N+](=O)[O-])c1N[C@@H]1CCCC[C@@H]1NC(=O)c1cccnc1 [Compound 1, N-((1S, 2R)-2-((4-bromo-2-(methylcarbamoyl)-6-nitrophenyl)amino)cyclohexyl)nicotinamide] | 5.00 to 6.00 | 6.00 to 7.00 | 
5 | CNC(=O)c1cc(Br)cc([N+](=O)[O-])c1N1CCC2(CCN(C(=O)c3cncc4ccccc34)C2)C1 (stereo not shown) [Compound 66, 5-bromo-2-(7-(isoquinoline-4-carbonyl)-2,7-diazaspiro[4.4]nonan-2-yl)-N-methyl-3-nitrobenzamide] | 6.00 to 7.00 | 6.00 to 7.00 | 
6 | O=C(NC1CC(F)(F)C1)c1cc(Br)cc(C(F)(F)F)c1N[C@H]1CN(C(=O)c2cncc3ccccc23)CCC1(F)F [Compound 144, (S)-5-bromo-2-((4,4-difluoro-1-(isoquinoline-4-carbonyl)piperidin-3-yl)amino)-N-(3,3-difluorocyclobutyl)-3-(trifluoromethyl)benzamide] | > 7.00 | > 7.00 | 
7 | C=CCNC(=O)c1cc(Br)cc([N+](=O)[O-])c1N[C@H]1CN(C(=O)c2cncc3ccccc23)CCC1(F)F [Compound 156, (S)-N-ally1-5-bromo-2-((4,4-difluoro-1-(isoquinoline-4-carbonyl)piperidin-3-yl)amino)-3-nitrobenzamide] | > 7.00 | > 7.00 | 
8 | CC(C)(O)CNC(=O)c1cc(Br)cc([N+](=O)[O-])c1N[C@H]1CN(C(=O)c2cncc3ccccc23)CCC1(F)F [Compound 154, (S)-5-bromo-2-((4,4-difluoro-1-(isoquinoline-4-carbonyl)piperidin-3-yl)amino)-N-(2-hydroxy-2-methylpropyl)-3-nitrobenzamide] | > 7.00 | > 7.00 | 
9 | O=C(NC1CC1)c1cc(Br)cc([N+](=O)[O-])c1N[C@@H]1COCC[C@@H]1NC(=O)c1cncc2ccccc12 [Compound 133, N-((3S, 4S)-3-((4-bromo-2-(cyclopropylcarbamoyl)-6-nitrophenyl)amino)tetrahydro-2H-pyran-4-yl)isoquinoline-4-carboxamide] | > 7.00 | > 7.00 | 
10 | O=C(N[C@@H]1CCNC1)c1cc(Br)cc([N+](=O)[O-])c1N[C@H]1CN(C(=O)c2cncc3ccccc23)CCC1(F)F [Compound 46, 5-bromo-2-(((S)-4,4-difluoro-1-(isoquinoline-4-carbonyl)piperidin-3-yl)amino)-3-nitro-N-((R)-pyrrolidin-3-yl) benzamide] | > 7.00 | > 7.00 | 
11 | O=C(NC1CC1)c1cc(Cl)cc(C(F)(F)F)c1N[C@H]1CN(C(=O)c2cncc3ccccc23)CCC1(F)F [Compound 83, (S)-5-chloro-N-cyclopropyl-2-((4,4-difluoro-1-(isoquinoline-4-carbonyl)piperidin-3-yl)amino)-3-(trifluoromethyl)benzamide] | > 7.00 | > 7.00 | 
12 | CNC(=O)c1cc(Br)cc([N+](=O)[O-])c1N[C@@H]1CCCC[C@@H]1NC(=O)C[C@@H]1CCNC1=O [Compound 7, 5-bromo-N-methyl-3-nitro-2-(((1R, 2S)-2-(2-((S)-2-oxopyrrolidin-3-yl)acetamido)cyclohexyl)amino)benzamide] | < 5.00 | 5.00 to 6.00 | 
13 | CNC(=O)c1cc(Br)cc([N+](=O)[O-])c1N[C@H]1CN(C(=O)c2cncc3ccccc23)CC12CC2 [Compound 74, (R)-5-bromo-2-((5-(isoquinoline-4-carbonyl)-5-azaspiro[2,4]heptan-7-yl)amino)-N-methyl-3-nitrobenzamide] | > 7.00 | 6.00 to 7.00 | 
14 | O=C(NC1CC(F)(F)C1)c1cc(Br)cc([N+](=O)[O-])c1N1CCC2(CCN(C(=O)c3cncc4ccccc34)C2)C1 (stereo not shown) [Compound 26, 5-bromo-N-(3,3-difluorocyclobutyl)-2-(7-(isoquinoline-4-carbonyl)-2,7-diazaspiro[4.4]nonan-2-yl)-3-nitrobenzamide] | 6.00 to 7.00 | > 7.00 | 
15 | CNC(=O)c1cc(Br)cc([N+](=O)[O-])c1N1CCC2(CN(C(=O)c3cncc4ccccc34)CC2(F)F)C1 (stereo not shown) [Compound 129, 5-bromo-2-(9,9-difluoro-7-(isoquinoline-4-carbonyl)-2,7-diazaspiro[4, 4]nonan-2-yl)-N-methyl-3-nitrobenzamide] | 6.00 to 7.00 | 6.00 to 7.00 | 
16 | CNC(=O)c1cc(Cl)cc(C(F)(F)F)c1N[C@H]1CN(C(=O)c2cncc3ccccc23)CCC1(F)F [Compound 84, (S)-5-chloro-2-((4,4-difluoro-1-(isoquinoline-4-carbonyl)piperidin-3-yl)amino)-N-methyl-3-(trifluoromethyl)benzamide] | > 7.00 | > 7.00 | 
17 | NC(=O)c1cc(Br)cc([N+](=O)[O-])c1N[C@@H]1CCCC[C@@H]1NC(=O)c1cncc2ccccc12 [Compound 53, N-((1S,2R)-2-((4-bromo-2-carbamoyl-6-nitrophenyl)amino)cyclohexyl)isoquinoline-4-carboxamide] | 5.00 to 6.00 | 6.00 to 7.00 | 
18 | CNC(=O)c1cc(Br)cc([N+](=O)[O-])c1NC1CC2(C1)CN(C(=O)c1cncc3ccccc13)C2 [Compound 13, 5-bromo-2-((2-(isoquinoline-4-carbonyl)-2-azaspiro[3.3]heptan-6-yl)amino)-N-methyl-3-nitrobenzamide] | < 5.00 | ≤ 5.00 | 
19 | O=C(NCC(F)(F)F)c1cc(Br)cc([N+](=O)[O-])c1N[C@@H]1CCCC[C@@H]1NC(=O)c1cncc2ccccc12 [Compound 59, N-((1S, 2R)-2-((4-bromo-2-nitro-6-((2,2,2-trifluoroethyl)carbamoyl)phenyl)amino)cyclohexyl)isoquinoline-4-carboxamide] | 6.00 to 7.00 | 6.00 to 7.00 | 
20 | Cn1cc(NC(=O)c2cc(Br)cc([N+](=O)[O-])c2N[C@H]2CN(C(=O)c3cncc4ccccc34)CCC2(F)F)cn1 [Compound 155, (S)-5-bromo-2-((4,4-difluoro-1-(isoquinoline-4-carbonyl)piperidin-3-yl)amino)-N-(1-methyl-1H-pyrazol-4-yl)-3-nitrobenzamide] | > 7.00 | > 7.00 | 
21 | O=C(NC1CC1)c1cc(Br)cc([N+](=O)[O-])c1N[C@@H]1CCCN(C(=O)c2cncc3ccccc23)C1 [Compound 125, (R)-5-bromo-N-cyclopropyl-2-((1-(isoquinoline-4-carbonyl)piperidin-3-yl)amino)-3-nitrobenzamide] | > 7.00 | > 7.00 | 
22 | C[C@@H](NC(=O)c1cc(Br)cc([N+](=O)[O-])c1N[C@@H]1CCCN(C(=O)c2cncc3ccccc23)C1)C(F)(F)F [Compound 81, 5-bromo-2-(((R)-1-(isoquinoline-4-carbonyl)piperidin-3-yl)amino)-3-nitro-N-((R)-1,1,1-trifluoropropan-2-yl)benzamide] | > 7.00 | > 7.00 | 
23 | CNC(=O)c1cc(Br)cc([N+](=O)[O-])c1N[C@@H]1CCOC[C@@H]1NC(=O)c1cncc2ccccc12 [Compound 70, N-((3R, 4R)-4-((4-bromo-2-(methylcarbamoyl)-6-nitrophenyl)amino)tetrahydro-2H-pyran-3-yl)isoquinoline-4-carboxamide] | 6.00 to 7.00 | 6.00 to 7.00 | 
24 | O=C(c1cc(Cl)cc([N+](=O)[O-])c1N[C@H]1CN(C(=O)c2cncc3ccccc23)CCC1(F)F)N1CC(F)(F)C1 [Compound 143, (S)-(5-chloro-2-((4,4-difluoro-1-(isoquinoline-4-carbonyl)piperidin-3-yl)amino)-3-nitrophenyl)(3,3-difluoroazetidin-1-yl)methanone] | > 7.00 | > 7.00 | 
25 | CC(C)(C)NC(=O)c1cc(Br)cc([N+](=O)[O-])c1N[C@@H]1CCCC[C@@H]1NC(=O)c1cncc2ccccc12 [Compound 85, N-((1S, 2R)-2-((4-bromo-2-(tert-butylcarbamoyl)-6-nitrophenyl)amino)cyclohexyl)isoquinoline-4-carboxamide] | 6.00 to 7.00 | 6.00 to 7.00 | 
26 | CC(C)C(Nc1c(C(=O)NC2CC(F)(F)C2)cc(Br)cc1[N+](=O)[O-])C1CN(C(=O)c2cncc3ccccc23)C1 (stereo not shown) [Compound 116, 5-bromo-N-(3,3-difluorocyclobutyl)-2-((1-(1-(isoquinoline-4-carbonyl)azetidin-3-yl)-2-methylpropyl)amino)-3-nitrobenzamide] | 6.00 to 7.00 | 6.00 to 7.00 | 
27 | CNC(=O)c1cc(Br)cc([N+](=O)[O-])c1NC(C(C)C)C1CN(C(=O)c2cncc3ccccc23)C1 (stereo in doubt) [Compound 12, (S)-5-bromo-2-((1-(1-(isoquinoline-4-carbonyl)azetidin-3-yl)-2-methylpropyl)amino)-N-methyl-3-nitrobenzamide] | > 7.00 | > 7.00 | 
